According to patent US9663457B2, “Carbamoyl hydrazine derivatives as formyl peptide modulators” (Allergan, Inc., priority 2014, dated 2017):

Biological target: T1, FPR2 (Homo sapiens, UniProt P25090)
T1 construct: expressed in transfected cells; host or cells: HEK-Gα16, CHO-Gα16 and HEK-Gqi5 cells stably expressing FPR2
T1 sequence (P25090 1-351): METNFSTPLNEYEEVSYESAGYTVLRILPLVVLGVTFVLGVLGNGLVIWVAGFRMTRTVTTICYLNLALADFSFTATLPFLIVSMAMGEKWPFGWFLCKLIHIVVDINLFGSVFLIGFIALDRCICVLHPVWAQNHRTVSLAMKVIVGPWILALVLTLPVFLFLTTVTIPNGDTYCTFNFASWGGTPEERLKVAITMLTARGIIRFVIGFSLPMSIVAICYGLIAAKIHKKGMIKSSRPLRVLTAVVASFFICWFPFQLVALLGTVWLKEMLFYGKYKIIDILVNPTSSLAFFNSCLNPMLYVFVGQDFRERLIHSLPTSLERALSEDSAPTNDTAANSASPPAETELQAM
Assay: FPR2 compound-induced calcium activity assay on FLIPR Tetra
Format: cell-based
Conditions: HEK-Gα16, CHO-Gα16 or HEK-Gqi5 cells stably expressing FPR2, tested at 0.61 to 10,000 nM; for Emax: read-out: % Efficacy
Method: Compounds of Formula I modulate FPR activity. […] HEK-Gα16 and CHO-Gα16 cells stably expressing FPR2 were cultured in (F12, 10% FBS, 1% PSA, 400 μg/ml geneticin and 50 μg/ml hygromycin) and HEK-Gqi5 cells stable expressing FPR2 were cultured in (DMEM high glucose, 10% FBS, 1% PSA, 400 μg/ml geneticin and 50 μg/ml hygromycin). In general, the day before the experiment, 18,000 cells/well were plated in a 384-well clear bottom poly-D-lysine coated plate. The following day, the screening compound-induced calcium activity was assayed on the FLIPR^Tetra. The drug plates were prepared in 384-well microplates using the EP3 and the MuItiPROBE robotic liquid handling systems. Compounds were tested at concentrations ranging from 0.61 to 10,000 nM. Results are expressed as EC50 (nM) and efficacy values.

Row | EC50 | Emax | Structure (SMILES)
1 | 46 nM | 89% | CCCC(CCC)(CC(=O)NNC(=O)Nc1ccc(Br)cc1)C(=O)OC [Compound 4, methyl 2-(2-{2-[(4-bromophenyl)carbamoyl]hydrazinyl}-2-oxoethyl)-2-propylpentanoate]
2 | 35 nM | 98% | CCCN(NC(=O)Nc1ccc(C(F)(F)F)cc1)C(=O)CCC(=O)OCC [Compound 13, ethyl 4-oxo-4-(1-propyl-2-{[4-(trifluoromethyl)phenyl]carbamoyl}hydrazinyl)butanoate]
3 | 12 nM | 100% | CC(C)CN(NC(=O)Nc1ccc(Br)cc1)C(=O)CCC(=O)O [Compound 8, 4-{2-[(4-Bromophenyl)carbamoyl]-1-(2-methylpropyl)hydrazinyl}-4-oxobutanoic Acid]
4 | 339 nM | 99% | CC(C)CN(NC(=O)Nc1ccc(Br)cc1F)C(=O)CCC(=O)O [Compound 10, 4-{2-[(4-bromo-2-fluorophenyl)carbamoyl]-1-(2-methylpropyl)hydrazinyl}-4-oxobutanoic acid]
5 | 750 nM | 100% | CCOC(=O)CC(=O)NNC(=O)Nc1ccc(Br)cc1 [Compound 1, Ethyl 3-{2[(4-bromophenyl)carbamoyl]hydrazinyl}-3-oxopropanoate]
6 | 34 nM | 100% | CCCN(NC(=O)Nc1ccc(Br)cc1F)C(=O)CCC(=O)OCC [Compound 16, ethyl 4-{2-[(4-bromo-2-fluorophenyl)carbamoyl]-1-propylhydrazinyl}-4-oxobutanoate]
7 | 5210 nM | 73% | CC(C)(C(=O)O)C(=O)NNC(=O)Nc1ccc(Br)cc1 [Compound 2, 3-{2-[(4-Bromophenyl)carbamoyl]hydrazinyl}-2,2-dimethyl-3-oxopropanoic Acid]
8 | 215 nM | 87% | CCCC(CCC)(CC(=O)NNC(=O)Nc1ccc(Br)cc1)C(=O)O [Compound 5, 2-[2-(2-{[(4-Bromophenyl)amino]carbonyl}hydrazino)-2-oxoethyl]-2-propylpentanoic Acid]
9 | 29 nM | 100% | CCCN(NC(=O)Nc1ccc(Br)cc1F)C(=O)CCC(=O)O [Compound 17, 4-{2-[(4-bromo-2-fluorophenyl)carbamoyl]-1-propylhydrazinyl}-4-oxobutanoic acid]
10 | 31 nM | 100% | CCOC(=O)CCC(=O)N(CC(C)C)NC(=O)Nc1ccc(Br)cc1 [Compound 7, Ethyl 4-{2-[(4-Bromophenyl)carbamoyl]-1-(2-methylpropyl)hydrazinyl}-4-oxobutanoate]
11 | 28 nM | 97% | CCCN(NC(=O)Nc1ccc(C(F)(F)F)cc1)C(=O)CCC(=O)O [Compound 14, 4-oxo-4-(1-propyl-2-{[4-(trifluoromethyl)phenyl]carbamoyl}hydrazinyl)butanoic acid]
12 | 34 nM | 100% | CCCCN(NC(=O)Nc1ccc(Br)cc1)C(=O)CCC(=O)OCC [Compound 15, ethyl 4-{2-[(4-bromophenyl)carbamoyl]-1-butylhydrazinyl}-4-oxobutanoate]
13 | 21 nM | 98% | CC(C)CN(NC(=O)Nc1ccc(C(F)(F)F)cc1)C(=O)CCC(=O)O [Compound 12, 4-[1-(2-methylpropyl)-2-{[4-(trifluoromethyl)phenyl]carbamoyl}hydrazinyl]-4-oxobutanoic acid]
14 | 421 nM | 73% | CCC(CC)(CC(=O)NNC(=O)Nc1ccc(Br)cc1)C(=O)O [Compound 6, 4-{2-[(4-bromophenyl)carbamoyl]hydrazinyl}-2,2-diethyl-4-oxobutanoic acid]
15 | 3660 nM | 76% | CCOC(=O)CCC(=O)N(CC(C)C)NC(=O)Nc1ccc(Br)cc1F [Compound 9, ethyl 4-{2-[(4-bromo-2-fluorophenyl)carbamoyl]-1-(2-methylpropyl)hydrazinyl}-4-oxobutanoate]
16 | 57 nM | 94% | CCOC(=O)CCC(=O)N(CC(C)C)NC(=O)Nc1ccc(C(F)(F)F)cc1 [Compound 11, ethyl 4-[1-(2-methylpropyl) 2{[4-(trifluoromethyl)phenyl]carbamoyl}hydrazinyl]-4-oxobutanoate]
17 | 602 nM | 86% | CC(C)(CC(=O)NNC(=O)Nc1ccc(Br)cc1)C(=O)O [Compound 3, 4-{2-[(4-bromophenyl)carbamoyl]hydrazinyl}-2,2-dimethyl-4-oxobutanoic acid]
